Patent publication US20240199587A1, “HETEROCYCLIC COMPOUNDS” (Hoffmann-La Roche Inc., priority 2021, published 2024)

target: T1, MAGL (Homo sapiens, UniProt Q99685); assay: 2-AG assay (MAGL inhibitory activity, hydrolysis of 2-arachidonoylglycerol to arachidonic acid followed by mass spectrometry); assay type: biochemical; settings: 8 μM 2-arachidonoylglycerol, 15 min pre-incubation, 30 min incubation at RT, RapidFire MS readout
T1 sequence (Q99685 1-303): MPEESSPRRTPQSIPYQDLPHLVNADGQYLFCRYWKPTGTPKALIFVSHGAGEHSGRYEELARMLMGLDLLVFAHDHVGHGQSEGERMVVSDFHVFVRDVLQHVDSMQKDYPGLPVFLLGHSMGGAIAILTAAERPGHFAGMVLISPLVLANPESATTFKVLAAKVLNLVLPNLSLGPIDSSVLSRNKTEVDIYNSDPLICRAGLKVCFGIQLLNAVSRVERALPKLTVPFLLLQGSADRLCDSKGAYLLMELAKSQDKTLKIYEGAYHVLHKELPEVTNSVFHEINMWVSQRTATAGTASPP
Outline: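 Arachidonic acid released from 8 μM 2-arachidonoylglycerol was quantified by online SPE triple-quadrupole MS (negative ESI, 303.1→259.1), normalised to d8-arachidonic acid internal standard. Reaction ran 30 min at RT after 15 min RT compound pre-incubation with […] MAGL in TRIS/EDTA/Tween-20 buffer, 2.5% DMSO.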

IC50 [nM] | SMILES
0.42 | O=C(N1CC(c2cnc(NCC3(C(F)(F)F)CC3)cn2)C1)N1CC2(CC(n3cnc(C4CC4)n3)C2)C1 [Example 470, [6-(3-cyclopropyl-1,2,4-triazol-1-yl)-2-azaspiro[3.3]heptan-2-yl]-[3-[5-[[1-(trifluoromethyl)cyclopropyl]methylamino]pyrazin-2-yl]azetidin-1-yl]methanone]
14 | O=C(N1CC(OCc2cncc(C(F)(F)F)c2)C1)N1CC2(CC(n3cnc(C4CC4)n3)C2)C1 [Example 136, [6-(3-cyclopropyl-1,2,4-triazol-1-yl)-2-azaspiro[3.3]heptan-2-yl]-[3-[[5-(trifluoromethyl)-3-pyridyl]methoxy]azetidin-1-yl]methanone]
1440 | O=C(C1CC(OCC2(C(F)(F)F)CC2)C1)N1CC2(CC(n3cnc(C4CC4)n3)C2)C1 (stereo not drawn) [compound 176, [6-(3-cyclopropyl-1,2,4-triazol-1-yl)-2-azaspiro[3.3]heptan-2-yl]-[3-[[1-(trifluoromethyl)cyclopropyl]methoxy]cyclobutyl]methanone]
1440 | O=C(N1CCC(NS(=O)(=O)c2ccc(F)cc2)CC1)N1CC2(CC(n3cnc(C4CC4)n3)C2)C1 [Example 336, N-[1-[6-(3-cyclopropyl-1,2,4-triazol-1-yl)-2-azaspiro[3.3]heptane-2-carbonyl]-4-piperidyl]-4-fluoro-benzenesulfonamide]
248 | O=C(N1CC(Oc2nccc(C(F)(F)F)n2)C1)N1CC2(CC(n3cnc(C4CC4)n3)C2)C1 [Example 316, [6-(3-cyclopropyl-1,2,4-triazol-1-yl)-2-azaspiro[3.3]heptan-2-yl]-[3-[4-(trifluoromethyl)pyrimidin-2-yl]oxyazetidin-1-yl]methanone]
33.1 | CC(C)(C)c1nc(-c2ccc(C(=O)N3CC4(CC(n5nccc5C5(C)CC5)C4)C3)cc2)no1 [Example 10, [4-(5-tert-butyl-1,2,4-oxadiazol-3-yl)phenyl]-[6-[5-(1-methylcyclopropyl)pyrazol-1-yl]-2-azaspiro[3.3]heptan-2-yl]methanone]
0.2 | O=C(N1CC(Oc2ccc(C(F)(F)F)c(C3CC3)c2)C1)N1CC2(CC(n3cnc(C4CC4)n3)C2)C1 [Example 187, [6-(3-cyclopropyl-1,2,4-triazol-1-yl)-2-azaspiro[3.3]heptan-2-yl]-[3-[3-cyclopropyl-4-(trifluoromethyl)phenoxy]azetidin-1-yl]methanone]
1090 | Cc1cc(C)n(C23CC(C4CN(C(=O)N5CC6(CC(n7cnc(C8(O)CC8)n7)C6)C5)C4)(C2)C3)n1 [Example 356, [3-[3-(3,5-dimethylpyrazol-1-yl)-1-bicyclo[1.1.1]pentanyl]azetidin-1-yl]-[6-[3-(1-hydroxycyclopropyl)-1,2,4-triazol-1-yl]-2-azaspiro[3.3]heptan-2-yl]methanone]
4610 | CC(C)(C)n1cc(C2CN(C(=O)N3CC4(CC(n5cnc(C6CC6)n5)C4)C3)C2)cn1 [Example 181, [3-(1-tert-butylpyrazol-4-yl)azetidin-1-yl]−[6-(3-cyclopropyl-1,2,4-triazol-1-yl)-2-azaspiro[3.3]heptan-2-yl]methanone]
1.25 | CS(=O)(=O)c1ccc(CC2CC3(C2)CN(C(=O)N2CC4(CC(n5cnc(C6(O)CC6)n5)C4)C2)C3)c(F)c1 [Example 403, [6-[(2-fluoro-4-methylsulfonyl-phenyl)methyl]-2-azaspiro[3.3]heptan-2-yl]-[6-[3-(1-hydroxycyclopropyl)-1,2,4-triazol-1-yl]-2-azaspiro[3.3]heptan-2-yl]methanone]
7.4 | O=C(N1C[C@H]2C[C@H](Oc3ccc(F)c(F)c3)C[C@H]2C1)N1CC2(CC(n3cnc(C4CC4)n3)C2)C1 [Example 119, [6-(3-cyclopropyl-1,2,4-triazol-1-yl)-2-azaspiro[3.3]heptan-2-yl]-[rac-(3aS,6aR)-5-(3,4-difluorophenoxy)-3,3a,4,5,6,6a-hexahydro-1H-cyclopenta[c]pyrrol-2-yl]methanone]
546 | O=C(C1CC(COCC2(C(F)(F)F)CC2)C1)N1CC2(CC(n3cnc(C4CC4)n3)C2)C1 (stereo not drawn) [Example 173, [6-(3-cyclopropyl-1,2,4-triazol-1-yl)-2-azaspiro[3.3]heptan-2-yl]−[3-[[1-(trifluoromethyl)cyclopropyl]methoxymethyl]cyclobutyl]methanone]
0.1 | O=C(N1CC2(CC(Cc3ccc(F)cc3F)C2)C1)N1CC2(CC(n3cnc(C4CCC4)n3)C2)C1 [Example 184, [6-(3-cyclobutyl-1,2,4-triazol-1-yl)-2-azaspiro[3.3]heptan-2-yl]-[6-[(2,4-difluorophenyl)methyl]-2-azaspiro[3.3]heptan-2-yl]methanone]
2.6 | O=C(N1CC2(CC(Oc3ccc(F)cc3F)C2)C1)N1CC2(CC(n3cnc(C4CC4)n3)C2)C1 [Example 59, (6-(3-cyclopropyl-1H-1,2,4-triazol-1-yl)-2-azaspiro[3.3]heptan-2-yl)(6-(2,4-difluorophenoxy)-2-azaspiro[3.3]heptan-2-yl)methanone]
0.5 | O=C(N1CC(Oc2cccc(C3CC3)c2F)C1)N1CC2(CC(n3cnc(C4CC4)n3)C2)C1 [Example 198, [3-(3-cyclopropyl-2-fluoro-phenoxy)azetidin-1-yl]-[6-(3-cyclopropyl-1,2,4-triazol-1-yl)-2-azaspiro[3.3]heptan-2-yl]methanone]
0.4 | O=C(N1CC(c2ccc(OC(F)(F)F)cc2)C1)N1CC2(CC(n3cnc(C4CC4)n3)C2)C1 [Example 33, [6-(3-cyclopropyl-1,2,4-triazol-1-yl)-2-azaspiro[3.3]heptan-2-yl]−[3-[4-(trifluoromethoxy)phenyl]azetidin-1-yl]methanone]
2.4 | O=C(N1CC2(CC(n3cnc(C(F)(F)F)n3)C2)C1)N1CC2(CN(Cc3ccc(S(=O)(=O)C(F)(F)F)cc3)C2)C1 [Example 353, [6-[[4-(trifluoromethylsulfonyl)phenyl]methyl]-2,6-diazaspiro[3.3]heptan-2-yl]-[6-[3-(trifluoromethyl)-1,2,4-triazol-1-yl]-2-azaspiro[3.3]heptan-2-yl]methanone]
138 | N#Cc1ccc(S(=O)(=O)N2CC3(CN(C(=O)N4CC5(CC(n6cnc(C7CC7)n6)C5)C4)C3)C2)cc1 [Example 308]
904 | NC(=O)C(c1ccc(F)cc1)N1CCN(C(=O)N2CC3(CC(n4cnc(C5CC5)n4)C3)C2)CC1 (stereo not drawn) [Example 332, 2-[4-[6-(3-cyclopropyl-1,2,4-triazol-1-yl)-2-azaspiro[3.3]heptane-2-carbonyl]piperazin-1-yl]-2-(4-fluorophenyl)acetamide]
0.3 | O=C(N1CC2(CC(Cc3ccc(F)c(F)c3)C2)C1)N1CC2(CC(n3cnc(C4CC4)n3)C2)C1 [Example 50, (6-(3-cyclopropyl-1H-1,2,4-triazol-1-yl)-2-azaspiro[3.3]heptan-2-yl)(6-(3,4-difluorobenzyl)-2-azaspiro[3.3]heptan-2-yl)methanone]
3170 | O=C(N1CC(c2ccc(C3(C(F)(F)F)CC3)cc2)C1)N1CC2(CC(n3ncnc3C3CC3)C2)C1 [Example 67, [6-(5-cyclopropyl-1,2,4-triazol-1-yl)-2-azaspiro13.31heptan-2-yl]−[3-[4-[1-(trifluoromethyl)cyclopropyl]phenyl]azetidin-1-yl]1methanone]
38.5 | O=C(N1CC(c2cnc(N3CC(C(F)(F)F)C3)nc2)C1)N1CC2(CC(n3cnc(C(F)(F)F)n3)C2)C1 [Example 423, [3-[2-[3-(trifluoromethyl)azetidin-1-yl]pyrimidin-5-yl]azetidin-1-yl]-[6-[3-(trifluoromethyl)-1,2,4-triazol-1-yl]-2-azaspiro[3.3]heptan-2-yl]methanone]
63.5 | O=C(N1CC(OCc2ccc(F)cc2Cl)C1)N1CC2(CC(n3cnc(C4CC4)c3)C2)C1 [Example 109, [3-[(2-chloro-4-fluoro-phenyl)methoxy]azetidin-1-yl]-[6-(4-cyclopropylimidazol-1-yl)-2-azaspiro[3.3]heptan-2-yl]methanone]
1.5 | O=C(N1C[C@H]2CC(Oc3ccc(F)c(Cl)c3)C[C@H]2C1)N1CC2(CC(n3cnc(C4CC4)n3)C2)C1 (mixture of isomers) [Example 126, [6-(3-cyclopropyl-1,2,4-triazol-1-yl)-2-azaspiro[3.3]heptan-2-yl]-[rac-(3aS,6aR)-5-(4-fluoro-3-chloro-phenoxy)-3,3a,4,5,6,6a-hexahydro-1H-cyclopenta[c]pyrrol-2-yl]methanone]
215 | CC(C)(C)c1nc(-c2ccc(C(=O)N3CC4(CC(n5cc(C6CC6)cn5)C4)C3)cc2)no1 [Example 7, [4-(5-tert-butyl-1,2,4-oxadiazol-3-yl)phenyl]-[6-(4-cyclopropylpyrazol-1-yl)-2-azaspiro[3.3]heptan-2-yl]methanone]
4170 | COc1ccnn1C1CC2(C1)CN(C(=O)c1ccc(-c3noc(C(C)(C)C)n3)cc1)C2 [Example 19, [4-(5-tert-butyl-1,2,4-oxadiazol-3-yl)phenyl]-[6-(5-methoxypyrazol-1-yl)-2-azaspiro[3.3]heptan-2-yl]methanone]
19.2 | CS(=N)(=O)c1cc(F)ccc1CC1CC2(C1)CN(C(=O)N1CC3(CC(n4cnc(C5(O)CC5)n4)C3)C1)C2 (stereo not drawn) [Example 354, [6-[[4-fluoro-2-(methylsulfonimidoyl)phenyl]methyl]-2-azaspiro[3.3]heptan-2-yl]-[6-[3-(1-hydroxycyclopropyl)-1,2,4-triazol-1-yl]-2-azaspiro[3.3]heptan-2-yl]methanone]
